In patent publication US20130123358A1, “Metabolic Benefits to Butyrate as a Chronic Diet Supplement” (priority 2009, published 2013):
Values belong to the molecule of their own block, whether it stands above or below them.

Tests used:
HDAC [1] = assay: Histone Deacetylase Assay Kit, inhibition by butyrate isoforms; conditions: Histone Deacetylase Assay Kit (Upstate), FIG. 8
From the text: Several isoforms of butyrate were purchased (Sigma Aldrich Chemicals, St. Louis, Mo.) and tested for inhibitory activity of HDAC, using a Histone Deacetylase Assay Kit (Upstate Biotechnology, Lake Placid, N.Y.).

HDAC [2] = assay: Histone deacetylase assay on muscle nuclear extracts of treated mice; assay type: in vivo, mouse; conditions: TSA-treated mice on HFD, positive control
Method: Histone deacetylase assay were conducted according to the instruction from the manufacturer (#17-320, Upstate). Briefly, 10 ug of muscle nuclear extract (as an enzyme) was incubated with [3H]-acetyl CoA (#TRK688, Amersham) radio labeled histone H4 peptide (25,000 CPM, as a substrate) at 37° C. for 12 hours by shaking Released [3H]-acetate was measured using a scintillation counter. The nuclear extract was prepared according to a protocol described elsewhere (17). The muscle tissues were collected and snap-frozen in liquid nitrogen within 2 min of cervical dislocation of mice. Tissue samples were stored at −80° C. until further processing. The muscle sample of 200˜300 mg was cut into small pieces on dry ice and homogenized in 1 ml of lysate buffer. After centrifugation at 10,000 rpm for 1 minute at 4° C., the nucleus was pelleted and collected. After being washed, the nucleus pellet was treated with extraction buffer. The supernatant was collected for nuclear protein after centrifugation at 14,000 rpm for 5 minutes at 4° C.
Without wishing to be bound by this theory, one activity of butyrate could be related to inhibition of HDAC. Sodium butyrate inhibits the class I and class II histone deacetylases (HDACs). To test this possibility, HDAC activity was examined in the skeletal muscle of mice at 16 weeks on HFD (FIG. 7G). The assay was conducted with the nuclear extracts of muscle samples. […]

[3] = system: C57BL/6J mice on high fat diet; assay: TSA in HFD-fed mice (body weight, ITT, insulin signaling, muscle fiber); assay type: in vivo, mouse; conditions: TSA 0.6 ug/kg/day i.p.
Method: Sodium butyrate was administrated through dietary supplementation. Sodium butyrate (#303410, Sigma) was incorporated into the HFD evenly through blending the diet and sodium butyrate together at 400 rpm in a food processor. Sodium butyrate (50 g) was used in 1 kg diet to reach a dose of 5% w/w. The sodium butyrate containing diet was pelleted and stored in a −20° C. freezer. Trichostatin A (TSA) (T-1052, A.G. Scientific Inc. San Diego, Calif.) was dissolved in DMSO, and diluted in 0.9% saline at 2:98 ratio. The TSA solution (200 ul) was administrated by intra-peritoneal (i.p.) injection to reach a dose of […]. The control mice were administrated with the same volume of vehicle. 50 ml of tributyrin (#113026, Sigma) was incorporated into one kilogram of Chow diet in powder to reach a dose of 5% w/w in mice.
Trichostatin A (TSA) is a well-established HDAC inhibitor that is frequently used in the study of HDACs. The data presented above indicate that the metabolic activity of butyrate may be in part related to inhibition of HDACs. TSA activity was examined in the same model of murine obesity. TSA was administrated through daily i.p. injection during HFD feeding to C57BL/6J mice. The control mice were injected with an identical volume of PBS.
The mice at 5 weeks in age were fed HFD to induce obesity, and TSA was administrated at the dose of 0.6 ug/kg/day. The effects of TSA treatment were tested after 12-13 weeks. […] FIG. 11C indicates the insulin signaling in the gastrocnemius muscle. The muscle was isolated after insulin (0.75 U/kg) injection for 30 minutes and used to prepare whole cell lysate for immunoblot. IRS-1 and Akt were examined for tyrosine (Y632) and serine (S473) phosphorylation.
In addition, the vastus laterais muscle was isolated from the mice at 13 weeks on HFD, and used to make serial cryostat sections of muscle. The muscle slides made from vastus lateralis, gastrocnemius (gastr.) and soleus muscle were stained with antibody against the type I myosin heavy chain in the oxidative fiber. The photograph was taken at 20× magnification. The whole cell lysate was prepared from gastrocnemius muscle and analyzed in an immunoblot. PGC-1α, type I myosin heavy chain (Myosin) and myoglobin were blotted with specific antibodies, and the results shown in FIG. 11D. The results in FIGS. 11A-11D are the mean±SE (n=8 in each group). *P<0.05 (vs. control).

[4] = system: C57BL/6J mice on chow diet; assay: Amyl butyrate in mice on chow diet for 4 months; assay type: in vivo, mouse; conditions: amyl butyrate 5 g/kg BW/day in chow diet
Method: Amyl butyrate was administrated at 5 g/kg BW/day in C57BL/6J mice for 4 months. The amyl butyrate was added to the chow diet. […] FIGS. 14B and 14C show the body fat and muscle content measured by NMR as described above. […] In FIGS. 14A-14E, values are the mean±SE (n=7). *P<0.05, **P<0.001 compared to the control by Student's t test.

ob/ob mice = assay: Tributyrin in ob/ob genetically obese mice; assay type: in vivo, mouse; conditions: tributyrin 5 g/kg body weight/day in chow diet
Method: Male C57BL/6J (4 weeks in age) and ob/ob mice (4 weeks in age) were purchased from the Jackson Laboratory (Bar Harbor, Me.). After one week quarantine, the C57BL/6J mice were fed on the high fat diet (HFD, D12331, Research Diets, New Brunswick, N.J.), which contains 58% calories in fat. The ob/ob mice were fed on Chow diet (5001, Lab Diet) that contains 13.4% calories in fat. All of the mice were housed in the animal facility with a 12:12-h light-dark cycle and constant temperature (22-24° C.). The mice were free to access water and diet. All procedures were performed in accordance with National Institute of Health guidelines for the care and use of animals and approved by the Institute Animal Care and Use Committee at the Pennington Biomedical Research Center.
Sodium butyrate was administrated through dietary supplementation. Sodium butyrate (#303410, Sigma) was incorporated into the HFD evenly through blending the diet and sodium butyrate together at 400 rpm in a food processor. Sodium butyrate (50 g) was used in 1 kg diet to reach a dose of 5% w/w. The sodium butyrate containing diet was pelleted and stored in a −20° C. freezer. […]
To test effect of different forms of butyric acid, tributyrin was used in the ob/ob genetically obese mice model. […] After 2 weeks, body weight was measured and an insulin tolerance test was given. […]

Structure (SMILES): CC(C)C(O)C(=O)O (stereo not shown) [2-hydroxy-3-methylbutanoic acid]
inhibitory activity of HDAC (HDAC [1]): inhibited HDAC

Structure (SMILES): CC(/C=C/C(=O)NO)=C\[C@@H](C)C(=O)c1ccc(N(C)C)cc1 [TSA, Trichostatin A]
HDAC activity in skeletal muscle (HDAC [2]): decreased | body weight, less than control ([3]; 12 weeks on HFD): 16% | insulin tolerance (ITT) ([3]; 12 weeks on HFD, 4 hour fast): significantly improved | expression of type I myosin heavy chain in gastrocnemius and soleus (histology) ([3]; 13 weeks on HFD): increased | oxidative fiber ratio in skeletal muscle ([3]; 13 weeks on HFD): increased | insulin-induced signaling (IRS-1 Y632, Akt S473 phosphorylation) in gastrocnemius muscle ([3]; 30 minutes after insulin 0.75 U/kg): significantly improved | PGC-1α protein in gastrocnemius muscle ([3]; immunoblot): all increased | myoglobin protein in gastrocnemius muscle ([3]; immunoblot): all increased | type I myosin heavy chain protein in gastrocnemius muscle ([3]; immunoblot): all increased

Structure (SMILES): CCCC(=O)OC(C)c1ccccc1 (stereo not shown) [a-methylbenzyl butyrate]
inhibitory activity of HDAC (HDAC [1]): inhibited HDAC

Structure (SMILES): CCCCCOC(=O)CCC [amyl butyrate]
body weight gain [4]: prevented body weight gain | insulin resistance (fasting glucose and ITT) [4]: protected the mice from insulin resistance | body fat gain ([4]; NMR): prevented fat gain | lean body mass ([4]; NMR): without affecting lean body mass | inhibitory activity of HDAC (HDAC [1]): inhibited HDAC

Structure (SMILES): CCCC(=O)OCc1ccccc1 [benzyl butyrate]
inhibitory activity of HDAC (HDAC [1]): inhibited HDAC

Structure (SMILES): CCCC(=O)OC [methyl butyrate]
inhibitory activity of HDAC (HDAC [1]): inhibited HDAC

Structure (SMILES): CCCC(=O)OCCc1ccccc1 [pennetyl butyrate]
inhibitory activity of HDAC (HDAC [1]): inhibited HDAC

Structure (SMILES): CCCC(=O)OCC(COC(=O)CCC)OC(=O)CCC [tributyrin]
weight gain (ob/ob mice; 2 weeks, vs control): significantly reduced | insulin sensitivity (ITT) (ob/ob mice; 4 hours fasting): preserved

Next, values leading:

inhibitory activity of HDAC (HDAC [1]): inhibited HDAC
Structure (SMILES): CCCCOC(=O)CCC [butyl butyrate]

inhibitory activity of HDAC (HDAC [1]): inhibited HDAC
Structure (SMILES): CCCCCCCOC(=O)CCC [heptyl butyrate]

inhibitory activity of HDAC (HDAC [1]): inhibited HDAC
Structure (SMILES): CCCCCCOC(=O)CCC [hexyl butyrate]

inhibitory activity of HDAC (HDAC [1]): inhibited HDAC
Structure (SMILES): CCCC(=O)OCC(C)C [isobutyl butyrate]
